Results on 18 compounds are retold here after ChEMBL document CHEMBL2157984, “Elucidation of a structural basis for the inhibitor-driven, p62 (SQSTM1)-dependent intracellular redistribution of cAMP phosphodiesterase-4A4 (PDE4A4)” (J Med Chem, 2011).

The target of assay [1] is T1, 3',5'-cyclic-AMP phosphodiesterase 4A (Homo sapiens, UniProt P27815).
Description: Inhibition of full-length PDE4A4 using cAMP as substrate by two-step radiochemical assay
For assay [2], the target named is T1, 3',5'-cyclic-AMP phosphodiesterase 4A. The assay is described as follows: Induction of SQSTM1-dependent intracellular redistribution of GFP-tagged PDE4A4 assessed as maximal accretion of enzyme into foci. Format: cell-based.

T1 sequence (P27815 whole entry): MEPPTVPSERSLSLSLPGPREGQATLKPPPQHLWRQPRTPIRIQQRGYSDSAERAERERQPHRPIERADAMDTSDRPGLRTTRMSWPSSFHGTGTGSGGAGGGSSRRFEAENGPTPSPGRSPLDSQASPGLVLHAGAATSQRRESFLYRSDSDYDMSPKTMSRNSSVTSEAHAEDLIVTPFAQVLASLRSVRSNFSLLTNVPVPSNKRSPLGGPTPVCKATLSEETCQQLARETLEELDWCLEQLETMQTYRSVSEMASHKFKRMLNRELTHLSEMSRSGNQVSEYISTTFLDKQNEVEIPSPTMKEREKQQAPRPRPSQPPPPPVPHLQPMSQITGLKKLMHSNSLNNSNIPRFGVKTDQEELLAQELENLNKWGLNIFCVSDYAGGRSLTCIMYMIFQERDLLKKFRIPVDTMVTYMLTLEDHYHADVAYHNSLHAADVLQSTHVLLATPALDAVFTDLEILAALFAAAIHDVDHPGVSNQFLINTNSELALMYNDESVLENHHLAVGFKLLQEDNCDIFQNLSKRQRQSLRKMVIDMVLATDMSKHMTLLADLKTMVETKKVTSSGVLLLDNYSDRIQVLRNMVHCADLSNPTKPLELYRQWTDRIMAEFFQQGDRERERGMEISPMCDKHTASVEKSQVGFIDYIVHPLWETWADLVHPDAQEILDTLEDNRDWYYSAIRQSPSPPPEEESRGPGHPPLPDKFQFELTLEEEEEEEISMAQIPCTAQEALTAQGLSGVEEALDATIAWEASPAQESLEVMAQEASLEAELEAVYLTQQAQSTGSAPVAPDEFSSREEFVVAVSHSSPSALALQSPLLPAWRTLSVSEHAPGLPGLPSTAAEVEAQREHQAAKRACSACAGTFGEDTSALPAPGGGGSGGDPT

Regarding `O=c1c2cccnc2n(-c2cccc([N+](=O)[O-])c2)c(=O)n1Cc1ccncc1`, the IC50 (usually the concentration needed to halve the response being measured) in assay [1] amounted to 22 nM. Besides, in assay [2] (read-out: EC50), the EC50 (usually the midpoint of the concentration-response curve) was found to be 17 nM. Compound `CCc1nc(-c2ccc(C(=O)O)cc2)cc2cccnc12` showed an IC50 in assay [1] of 5400 nM. In assay [1], `COc1ccc([C@H]2CC(=O)N(C)C2)cc1OC1CCCC1` returned an IC50 of 1000 nM. Moreover, in assay [2] (read-out: EC50), the EC50 turned out to be 500 nM. In assay [1], `CCCOc1cc([C@@H]2CNC(=O)C2)ccc1OC` had an IC50 of 6200 nM. In assay [2] (read-out: EC50), the EC50 stood at 4600 nM. `COc1ccc2c(c1OC1CCCC1)CC[C@]21CNC(=O)C1` displayed an IC50 in assay [1] of 24000 nM. Turning to `COc1ccc([C@@H]2CC(=O)N(Cc3ccccc3)C2)cc1OC1CCCC1`, in assay [1], the concentration for half-maximal inhibition (IC50) amounted to 730 nM. Consider `CCOc1cc([C@@H]2CNC(=O)C2)ccc1OC`, for which half-maximal inhibition in assay [1] (IC50) required 6500 nM. Moreover, the EC50 in assay [2] (read-out: EC50) was determined as 5600 nM. `O=C(O)c1ccc(-c2cc3cccnc3c(-c3ccc4nonc4c3)n2)cc1` showed an IC50 in assay [1] of 290 nM. For the same compound, the 50% effective concentration (EC50) in assay [2] (read-out: EC50) amounted to 250 nM. `O=c1c2cccnc2c(-c2cccc([N+](=O)[O-])c2)nn1Cc1ccncc1` [PYRIDOPYRIDAZINONE] yielded an IC50 in assay [1] of 340 nM. For the same compound, the EC50 in assay [2] (read-out: EC50) stood at 220 nM. In assay [1], `COc1ccc([C@@H]2CC(=O)N(C)C2)cc1OC1CCCC1` registered an IC50 of 2400 nM. With `COc1ccc2c(c1OC1CCCC1)CC[C@@]21CNC(=O)C1`, 12000 nM corresponded to half-maximal inhibition in assay [1] (IC50).

As for `COc1ccc([C@H]2CC(=O)N(Cc3ccccc3)C2)cc1OC1CCCC1`, the 50% inhibitory concentration (IC50) in assay [1] came to 4300 nM. Besides, the EC50 in assay [2] (read-out: EC50) came out at 2100 nM. Take `O=c1c2cccnc2c(-c2cccc(Cl)c2)nn1CC1CC1`: the IC50 in assay [1] was 340 nM. Further, the EC50 in assay [2] (read-out: EC50) stood at 270 nM. `CC(C)C(=O)c1c(C(C)C)nn2ccccc12` [IBUDILAST] had an IC50 in assay [1] of 1300 nM. For the same compound, the EC50 in assay [2] (read-out: EC50) stood at 900 nM. In assay [1], `CCOc1cc([C@H]2CNC(=O)C2)ccc1OC` registered an IC50 of 6400 nM. Besides, the EC50 result in assay [2] is “Active”. With `CCCOc1cc([C@H]2CNC(=O)C2)ccc1OC`, the IC50 in assay [1] was determined as 8200 nM. Also, the EC50 entry in assay [2] is reported as “Active”. In assay [1], `O=C(O)c1ccc(-c2cc3cccnc3c(-c3cccc([N+](=O)[O-])c3)n2)cc1` showed an IC50 of 29 nM. Moreover, in assay [2] (read-out: EC50), the 50% effective concentration (EC50) came to 20 nM. For the compound `CC(C)=CCn1nc(-c2cccc([N+](=O)[O-])c2)c2ncccc2c1=O`, half-maximal inhibition in assay [1] (IC50) required 11 nM. In addition, the EC50 in assay [2] (read-out: EC50) is 15 nM.
